Laboratory results published in patent US12251370B2, “Small molecule inhibitors of the BfrB:Bfd interaction” (BOARD OF SUPERVISORS OF LOUISIANA STATE UNIVERSITY AND …, priority 2018, dated 2025).
Where “and” joins values, the source holds several entries; their conditions need not be identical. Equal values may be shown once.

Legend:
[1] = system: wild type P. aeruginosa cells; assay: Growth response of wild type cells to analog (viable cell count); assay type: cell-based, Pseudomonas aeruginosa; conditions: M63 + 4 μM Fe; 15 h post-inoculation; viable cells vs untreated control
Method: To this end, wild type and ΔbfrB cells were cultured in M63 media supplemented with 4 μM Fe, in the presence of different concentrations of analog. […] Since BfrB is not essential, it is likely that the cell can compensate for the absence of the iron storage protein. […] The sudden onset of toxicity observed in the second phase, which is not observed with the wild type cells, is probably related to off-target effects that expose a fitness vulnerability caused by the absence of BfrB. Consequently, it is possible to conclude that the dose-dependent growth defect elicited by 11 or 16 on wild type P. aeruginosa cells is largely a consequence of the interaction between the small molecule inhibitors and BfrB in the bacterial cell. This issue was investigated in additional detail (see below) by probing the phenotypic and biochemical response of wild type cells treated with the small molecule inhibitors.

[2] = system: P. aeruginosa cells; assay: microbe, parasite or virus in culture; assay type: cell-based, Pseudomonas aeruginosa; conditions: 13 h
Method: These experiments were carried out in 96 well plates, as described above. […] The 500-fold diluted solution was centrifuged and the cell-free supernatant was analyzed for pyoverdin by fluorescence spectrophotometry in a Synergy H1 microplate reader (BioTek) with excitation at 400 nm and emission at λmax=455 nm. Full emission spectra (430-550 nm) were also recorded using a Perkin Elmer LS50B spectrophotometer.
As indicated above, genetic manipulations were used in prior work to delete the bfd gene (Δbfd) and evaluate the consequences of inhibiting the BfrB-Bfd interaction in P. aeruginosa.^18 Preventing the BfrB-Bfd interaction in the Δbfd mutant cells dysregulates iron homeostasis by causing the irreversible accumulation of iron in BfrB and the concomitant depletion of free iron levels in the cytosol. […] To analyze the levels of secreted pyoverdin, cells were pelleted and the supernatant was diluted 500-fold prior to measuring the fluorescence intensity at 455 nm (FIG. 7B).

[3] = system: P. aeruginosa clinical isolate MR3B; assay: Effect of analog on ciprofloxacin potency, clinical isolate MR3B; assay type: cell-based, Pseudomonas aeruginosa
Method: (§1) The combined treatment was carried out similarly, ensuring that the final concentration of DMSO was 2%.

[4] = system: P. aeruginosa PAO1; assay: Effect of analogs on the potency of fluoroquinolone antibiotics, strain PAO1; assay type: cell-based, Pseudomonas aeruginosa; conditions: PAO1
Method: as §1

[5] = system: A. baumannii; assay: Growth curves and IC50 determination in A. baumannii; assay type: cell-based, Acinetobacter baumannii (AB5075); conditions: Acinetobacter baumannii; AB5075; modified M63 media; 48 well-plates
Method: Pre-cultures (5 mL LB media) were grown for 12 h at 37° C. and 220 rpm in 50 mL conical tubes (VWR International, PA) covered with an air permeable membrane. The cells were then centrifuged at 4,000 rpm for 10 min, the resultant cell pellets washed twice in M63 media and then diluted in M63 media to OD600=0.01. Stock solutions (100 mM) of analog in DMSO were prepared weekly and stored at 4° C. Prior to initiating experiments in 96 well plates, the analog stock solution was serially diluted to make 10 mM or 1 mM working solutions in DMSO. A small volume of the appropriate working solution was transferred to a glass vial, diluted with DMSO to 30 μL, and then diluted to a final volume of 1.5 mL with pre-culture cell suspension with an OD600=0.01. The resultant cell suspension (200 μL) was transferred to a clear-bottom polystyrene 96 well plate (VWR), and incubated at 35° C. and 205 cpm for 13 h in an Epoch 2 microplate spectrophotometer (Biotek Instruments, Inc., Vermont). The growth curve in the presence of Ciprofloxacin was obtained in the same plate. […] MIC determinations were carried out using standard broth microdilution methods in 48 well plates and modified M63 media. Cells were incubated at 35° C.
This idea was tested with A. baumanni AB5075, a highly virulent isolate, which has been proposed as a model strain for the evaluation of pathogenesis and antimicrobial treatments.^66.

## O=C1NC(=O)c2c(NCCCc3cccc(O)c3)cccc21 [Analog 16, 4-((3-(3-Hydroxyphenyl)propyl)amino)isoindoline-1,3-dione]
[1]
  growth response of wild type cells: monophasic dose-dependent growth defect
[2]; Pseudomonas aeruginosa, read-out: viable cells relative to untreated control
  viability at 125 µM: ~30%
[2]; analog 125 μM, emission 455 nm
  pyoverdin secreted, fluorescence normalized to viable cells (CFU/mL), relative to untreated control: ~4.5 fold and ~4 fold
[3]; analog 16 + ciprofloxacin
  survival, fold lower relative to ciprofloxacin alone: approximately 20 fold
[3]; analog 16 + ciprofloxacin 0.2 μg/mL
  survival: 0.5%
[3]; analog 16 only, 125 μM
  survival: ca. 50%
[4]; analog 16 125 μM + ciprofloxacin 0.25 μg/mL
  % survival, fold lower relative to ciprofloxacin alone: approximately 50 fold
[4]; analog 16 125 μM + levofloxacin 0.5 μg/mL
  cell survival, fold lower relative to fluoroquinolone alone: approximately 50 fold
[4]; analog 16 125 μM + norfloxacin 0.9 μg/mL
  cell survival, fold lower relative to fluoroquinolone alone: approximately 50 fold
[4]; analog 16 only, 125 μM, 18 h
  survival relative to untreated control: ~30%
[5]
  IC50: 128 µM
